Data from US8563472B2 (priority 2010, dated 2013).

Legend:
[1] = tested on: Leptosphaeria nodorum (LEPTNO); test: In vitro fungitoxicity assay against Leptosphaeria nodorum in copper-minus / copper-plus liquid medium; format: cell-based; settings: for inhibition of growth at 0.05 µg/mL: Parastagonospora nodorum, copper-minus medium, growth by light scattering, read-out: LEPTNO % Inhn. Minus Copper Observed; for inhibition of growth at 0.05 µg/mL / LEPTNO % Inhn. Plus Copper Observed: test compound 0.05 μg/mL, 25° C., 72 h; for LEPTNO % Inhn. Plus Copper Observed: copper-plus medium (CuCl2.2H2O)
Experimental: In vitro fungitoxicity assays against Leptosphaeria nodorum (LEPTNO) were conducted using the liquid growth medium described by Coursen and Sisler (American Journal of Botany 1960, 47, 541-549) except that copper micronutrient, normally included as CuSO4, was omitted. The medium, termed “copper-minus”, was prepared by dissolving 10 g glucose, 1.5 g K2HPO4, 2 g KH2PO4 and 1 g (NH4)2SO4 in 1 liter of deionized water and treating the solution with 0.5 g Chelex 100 resin (Bio-Rad Analytical grade, 50-100 mesh, sodium form, cat#142-2822) by stirring at room temperature for 1 h. MgSO4.7H2O (0.5 g) was added, and stirring was continued for a further hour. Trace elements (minus CuSO4), and vitamins described by Coursen and Sisler were added from concentrated stock solutions and the entire medium was sterilized by filtration. Medium containing copper was prepared by adding CuCl2.2H2O to the copper-minus medium at 20 μM. […] Copper-minus medium (100 μL) was added to one of the wells and copper-plus medium to the second well. Control wells, included for each medium, received 1 μL DMSO and 100 μL of medium.
LEPTNO was grown on potato dextrose agar in 9 cm diameter petri dishes for 7 days (d). Sterile deionized water (20 mL) was added to a culture plate and spores suspended by scraping the surface gently with a sterile plastic loop. The resulting suspension was filtered through a double layer of sterile cheesecloth. […] The spores were resuspended in copper-minus medium, and the suspension adjusted to 2×10^5 spores per mL. Microtiter plates were inoculated with 100 μL of this spore suspension and the plates incubated at 25° C. for 72 h before assessing fungal growth by measuring light scattering in a NepheloStar plate reader. Growth inhibition was determined by comparing growth in the presence of test compound with growth in control wells lacking test compound.

Phytophthora infestans = format: in vivo; settings: hydrazone 50 ppm with 50 μM CuCl2.2H2O, applied 24 h before inoculation, tomato plants, assessed 7 d after inoculation

C/C(=N\NC(=O)c1cn(-c2ccccc2)nc1O)c1cc(Cl)cc(Cl)c1O [Compound 42]
inhibition of growth at 0.05 µg/mL [1]: 3.5% | LEPTNO % Inhn. Plus Copper Observed [1]: 91.2% | TLB % control (Phytophthora infestans): 2% | melting point: 269 to 271 °C

O=C(N/N=C/c1ccccc1)c1cnn(-c2ccc(Cl)cc2)c1C(F)(F)F [Compound 18]
inhibition of growth at 0.05 µg/mL [1]: 0% | LEPTNO % Inhn. Plus Copper Observed [1]: 92.5% | TLB % control (Phytophthora infestans): 7% | melting point: 205 to 207 °C

Cc1nc(C)c(C(=O)N/N=C/c2cc(Br)cc(Br)c2O)s1 [Compound 30]
inhibition of growth at 0.05 µg/mL [1]: 1% | LEPTNO % Inhn. Plus Copper Observed [1]: 71.2% | TLB % control (Phytophthora infestans): 49% | melting point: 225 to 226 °C

C/C(=N\NC(=O)c1sc(C)nc1C)c1ccccc1O [Compound 37]
inhibition of growth at 0.05 µg/mL [1]: 0% | LEPTNO % Inhn. Plus Copper Observed [1]: 94.2% | TLB % control (Phytophthora infestans): 81% | melting point: 202 to 204 °C

C/C(=N\NC(=O)c1ccoc1C)c1ccccc1O [Compound 9]
inhibition of growth at 0.05 µg/mL [1]: 3.9% | LEPTNO % Inhn. Plus Copper Observed [1]: 97% | TLB % control (Phytophthora infestans): 60%

C/C(=N\NC(=O)c1ccoc1C)c1cc(Cl)cc(Cl)c1O [Compound 46]
inhibition of growth at 0.05 µg/mL [1]: 0% | LEPTNO % Inhn. Plus Copper Observed [1]: 97.2% | TLB % control (Phytophthora infestans): 69% | melting point: 212 to 215 °C

C/C(=N\NC(=O)c1ccsc1)c1ccccc1O [Compound 40]
inhibition of growth at 0.05 µg/mL [1]: 0% | LEPTNO % Inhn. Plus Copper Observed [1]: 96.8% | TLB % control (Phytophthora infestans): 80% | melting point: 148 to 150 °C

C/C(=N\NC(=O)c1cc(C)nc2ccc(Br)cc12)c1ccccc1O [Compound 2]
inhibition of growth at 0.05 µg/mL [1]: 0% | LEPTNO % Inhn. Plus Copper Observed [1]: 83.4% | TLB % control (Phytophthora infestans): 36% | melting point: 251 to 254 °C

Cc1nc(C)c(C(=O)N/N=C/c2cc(Cl)cc(Cl)c2O)s1 [Compound 25]
inhibition of growth at 0.05 µg/mL [1]: 0% | LEPTNO % Inhn. Plus Copper Observed [1]: 81.9% | TLB % control (Phytophthora infestans): 71% | melting point: 217 to 219 °C

C/C(=N\NC(=O)c1cnn(-c2ccc(Cl)cc2)c1C(F)(F)F)c1ccccc1O [Compound 35]
inhibition of growth at 0.05 µg/mL [1]: 4.3% | LEPTNO % Inhn. Plus Copper Observed [1]: 94.8% | TLB % control (Phytophthora infestans): 59% | melting point: 201 to 202 °C

O=C(N/N=C/c1ccccc1O)c1ccc(Cl)s1 [Compound 23]
inhibition of growth at 0.05 µg/mL [1]: 0% | LEPTNO % Inhn. Plus Copper Observed [1]: 96.3% | TLB % control (Phytophthora infestans): 32% | melting point: 228 to 230 °C

O=C(N/N=C/c1cc(Cl)cc(Cl)c1O)c1ccc(Cl)s1 [Compound 26]
inhibition of growth at 0.05 µg/mL [1]: 2.7% | LEPTNO % Inhn. Plus Copper Observed [1]: 97.5% | TLB % control (Phytophthora infestans): 92% | melting point: 248 to 250 °C

O=C(N/N=C/c1ccccc1O)c1cc2ccccc2s1 [Compound 20]
inhibition of growth at 0.05 µg/mL [1]: 4.2% | LEPTNO % Inhn. Plus Copper Observed [1]: 95.4% | TLB % control (Phytophthora infestans): 18% | melting point: 220 to 221 °C

O=C(N/N=C/c1ccccc1O)c1cccs1 [Compound 7]
inhibition of growth at 0.05 µg/mL [1]: 0% | LEPTNO % Inhn. Plus Copper Observed [1]: 87.3% | TLB % control (Phytophthora infestans): 38%

C/C(=N\NC(=O)c1ccc(Cl)s1)c1cc(Br)cc(Br)c1O [Compound 50]
inhibition of growth at 0.05 µg/mL [1]: 0% | LEPTNO % Inhn. Plus Copper Observed [1]: 97.5% | TLB % control (Phytophthora infestans): 85% | melting point: 253 to 255 °C

CN1CCCCC1C(=O)N/N=C/c1cc(Cl)cc(Cl)c1O (stereo not drawn) [Compound 54, 1-methyl-piperidine-2-carboxylic acid [1-(3,5-dichloro-2-hydroxy-phenyl)-methylidene]-hydrazide]
inhibition of growth at 0.05 µg/mL [1]: 0% | LEPTNO % Inhn. Plus Copper Observed [1]: 91% | TLB % control (Phytophthora infestans): 22% | melting point: 107 to 110 °C

Cc1cc(C(=O)N/N=C/c2cc(Br)cc(Br)c2O)cs1 [Compound 32]
inhibition of growth at 0.05 µg/mL [1]: 0% | LEPTNO % Inhn. Plus Copper Observed [1]: 97.6% | TLB % control (Phytophthora infestans): 69% | melting point: 203 to 205 °C

Cc1c(C(=O)N/N=C/c2ccccc2O)[nH]c2c([N+](=O)[O-])cccc12 [Compound 4]
inhibition of growth at 0.05 µg/mL [1]: 11.3% | LEPTNO % Inhn. Plus Copper Observed [1]: 91.4% | TLB % control (Phytophthora infestans): 4% | melting point: 296 to 299 °C

C/C(=N\NC(=O)c1cnn(-c2ccc(Cl)cc2)c1C(F)(F)F)c1cc(Br)cc(Br)c1O [Compound 48]
inhibition of growth at 0.05 µg/mL [1]: 4.3% | LEPTNO % Inhn. Plus Copper Observed [1]: 56% | TLB % control (Phytophthora infestans): 19% | melting point: 121 to 125 °C

C/C(=N\NC(=O)c1sc(C)nc1C)c1cc(Cl)cc(Cl)c1O [Compound 43]
inhibition of growth at 0.05 µg/mL [1]: 0% | LEPTNO % Inhn. Plus Copper Observed [1]: 94.3% | TLB % control (Phytophthora infestans): 66% | melting point: 208 to 209 °C

Cc1ccc(C(=O)N/N=C/c2cc(Br)cc(Cl)c2O)cn1 [Compound 8]
inhibition of growth at 0.05 µg/mL [1]: 0% | LEPTNO % Inhn. Plus Copper Observed [1]: 60.9% | TLB % control (Phytophthora infestans): 0%

CCn1nc(C)cc1C(=O)N/N=C/c1cc(Cl)cc(Cl)c1O [Compound 16]
inhibition of growth at 0.05 µg/mL [1]: 3.5% | LEPTNO % Inhn. Plus Copper Observed [1]: 88% | TLB % control (Phytophthora infestans): 39% | melting point: 221 to 222 °C

O=C(N/N=C/c1cc(Br)cc(Br)c1O)c1ccc(Cl)s1 [Compound 31]
inhibition of growth at 0.05 µg/mL [1]: 4.9% | LEPTNO % Inhn. Plus Copper Observed [1]: 97.8% | TLB % control (Phytophthora infestans): 88% | melting point: 247 to 248 °C

O.O.[Cl][Cu][Cl] [CuCl2, CuCl2.2H2O, reference compound]
LEPTNO % inhibition attributed to copper chloride alone ([1]; CuCl2 10 μM, no test compound, copper-plus vs copper-minus medium across experiments): 9.3 ± 1.6%

Cc1cc(C(=O)N/N=C/c2cc(Cl)cc(Cl)c2O)cs1 [Compound 27]
inhibition of growth at 0.05 µg/mL [1]: 5.4% | LEPTNO % Inhn. Plus Copper Observed [1]: 97.3% | TLB % control (Phytophthora infestans): 78% | melting point: 189 to 191 °C

Cc1cc(C(=O)N/N=C/c2ccccc2O)c2cc(Br)ccc2n1 [Compound 3]
inhibition of growth at 0.05 µg/mL [1]: 0% | LEPTNO % Inhn. Plus Copper Observed [1]: 72.9% | TLB % control (Phytophthora infestans): 25% | melting point: 270 to 275 °C

O=C(N/N=C/c1cc(Br)cc(Br)c1O)c1ccsc1 [Compound 34]
inhibition of growth at 0.05 µg/mL [1]: 0% | LEPTNO % Inhn. Plus Copper Observed [1]: 97.9% | TLB % control (Phytophthora infestans): 80% | melting point: 236 to 237 °C

C=CCc1cccc(/C=N/NC(=O)c2ccc(Br)o2)c1O [Compound 11]
inhibition of growth at 0.05 µg/mL [1]: 12.9% | LEPTNO % Inhn. Plus Copper Observed [1]: 95.1% | TLB % control (Phytophthora infestans): 31%

Cc1occc1C(=O)N/N=C/c1cc(Cl)cc(Cl)c1O [Compound 10]
inhibition of growth at 0.05 µg/mL [1]: 8.7% | LEPTNO % Inhn. Plus Copper Observed [1]: 98.1% | TLB % control (Phytophthora infestans): 67%

O=C(N/N=C/c1ccccc1O)c1sc2ccccc2c1Cl [Compound 19]
inhibition of growth at 0.05 µg/mL [1]: 0% | LEPTNO % Inhn. Plus Copper Observed [1]: 92.1% | TLB % control (Phytophthora infestans): 44%

Cc1occc1C(=O)N/N=C/c1cc(Br)ccc1O [Compound 6]
inhibition of growth at 0.05 µg/mL [1]: 2.2% | LEPTNO % Inhn. Plus Copper Observed [1]: 96.7% | TLB % control (Phytophthora infestans): 75%

O=C(N/N=C/c1cc(Cl)ccc1O)c1cccs1 [Compound 5]
inhibition of growth at 0.05 µg/mL [1]: 0% | LEPTNO % Inhn. Plus Copper Observed [1]: 95.8% | TLB % control (Phytophthora infestans): 54%

O=C(N/N=C/c1cc(Cl)cc(Cl)c1O)c1ccco1 [Compound 14]
inhibition of growth at 0.05 µg/mL [1]: 0% | LEPTNO % Inhn. Plus Copper Observed [1]: 56.2% | TLB % control (Phytophthora infestans): 52%
